Molecules are shown by their SMILES.

For test [1], the system named is IL-5, IL-4, IL-13, IL-10 in BAL fluid. As to the kind of experiment: BAL fluid cytokine markers, multiplex flow-cytometry based assay. The format is in vivo, BALB/cJ female mice. Particulars: OVA+AKBA mice, 100 mg/kg AKBA. The text has this:
Allergic airway phenotype was induced by using an ovalbumin (OVA, hen egg) sensitization and challenge model as previously described with modifications [Beigelman, A. et al. Azithromycin attenuates airway inflammation in a noninfectious mouse model of allergic asthma. Chest 136, 498-506 (2009)]. Briefly (FIG. 1), two groups of mice (OVA control and OVA+AKBA) were sensitized with intraperitoneal ovalbumin plus alum on days 0 and 7, challenged for 3 days (day 14 to day 17) via nebulized OVA at 1% in PBS for 30 mins, and harvested 48 hr after final challenge. Supplementation groups (OVA+AKBA) were given 100 mg/kg of water soluble AKBA (pH 7) (PLT Health Solutions, Morristown, NJ, US) in autoclaved mouse water, via gavage, every other day for 10 days and then every day for the remainder of the experiment (9 days). OVA control and naïve mouse continued to receive normal autoclaved mouse water. Mice were weighted at the beginning and end of the experiment. Experiments involving AKBA were conducted twice, with the first group containing 5 mice per group and the second containing 15 mice per group (5 per group for naive). Experiment procedures were identical, and results were pooled for n=20 (n=5 for naive). Animal protocol 102063-0522 was approved by the University of Connecticut Health IACUC board. Experiments were repeated, as stated above, with oral gavages of B. pseudolongum culture in place of AKBA supplementation. Groups were designated as OVA control (n=10), OVA+B. pseudolongum (n=10) and naïve (n=5). OVA+B. pseudolongum groups were given 10^8 CFU B. pseudolongum in culture medium via gavage, every other day for 10 days and then every day for the remainder of the experiment (9 days). Multiple inflammatory mediators were analyzed in the cell-free supernatant of BAL fluid using a multiplex flow-cytometry based assay according to manufacturer's recommendations (BioLegend, San Diego, CA, US). Volume of cell free fluid was concentrated using a 50K centrifugal filter spun at 3000 g for 10-15 minutes. Samples were run on a ZE5 Cell Analyzer (Bio-Rad, Hercules, CA, US) and sample processing was conducting using software provided from the kit's manufacturer (BioLegend, San Diego, CA, US). Serum specific ovalbumin IgE levels was detected by using an ELISA kit with a sensitivity of 3.8 ng/mL per manufacturer's protocol (Cayman Chemical Company, Ann Arbor, MI, US).

For test [2], the system named is gut microbiome (Bifidobacterium). Particulars: healthy mice; cited from earlier work.
Test [3] concerns gut microbiota including Akkermansia; Bifidobacteria. Particulars: in vitro; cited from earlier work.
The next test has as its system OVA-specific IgE. The test can be described thus: Serum OVA-specific IgE, anti-OVA ELISA. The format is in vivo, BALB/cJ female mice. To be noted: OVA+AKBA mice, 100 mg/kg AKBA; at sacrifice; p=0.3223 vs OVA control. (In general: In an ELISA, binding on a coated surface is turned into a signal by an enzyme label.)
In test [4] the test system is BAL leukocytes and eosinophils. As to the kind of experiment: BAL fluid total and differential cell counts in OVA allergic airway model. The format is in vivo, BALB/cJ female mice. Particulars: 100 mg/kg AKBA.
The test system of a further test is gut microbiome. The test can be described thus: Gut microbiome profiling of fecal pellets by 16S rRNA sequencing. The format is in vivo, BALB/cJ female mice. The source says:
Allergic airway phenotype was induced by using an ovalbumin (OVA, hen egg) sensitization and challenge model as previously described with modifications [Beigelman, A. et al. Azithromycin attenuates airway inflammation in a noninfectious mouse model of allergic asthma. Chest 136, 498-506 (2009)]. Briefly (FIG. 1), two groups of mice (OVA control and OVA+AKBA) were sensitized with intraperitoneal ovalbumin plus alum on days 0 and 7, challenged for 3 days (day 14 to day 17) via nebulized OVA at 1% in PBS for 30 mins, and harvested 48 hr after final challenge. Supplementation groups (OVA+AKBA) were given 100 mg/kg of water soluble AKBA (pH 7) (PLT Health Solutions, Morristown, NJ, US) in autoclaved mouse water, via gavage, every other day for 10 days and then every day for the remainder of the experiment (9 days). OVA control and naïve mouse continued to receive normal autoclaved mouse water. Mice were weighted at the beginning and end of the experiment. Experiments involving AKBA were conducted twice, with the first group containing 5 mice per group and the second containing 15 mice per group (5 per group for naive). Experiment procedures were identical, and results were pooled for n=20 (n=5 for naive). Animal protocol 102063-0522 was approved by the University of Connecticut Health IACUC board. Experiments were repeated, as stated above, with oral gavages of B. pseudolongum culture in place of AKBA supplementation. Groups were designated as OVA control (n=10), OVA+B. pseudolongum (n=10) and naïve (n=5). OVA+B. pseudolongum groups were given 10^8 CFU B. pseudolongum in culture medium via gavage, every other day for 10 days and then every day for the remainder of the experiment (9 days). Fresh fecal pellets were collected upon defecation and stored in sterile RNA-/DNA-/RNAse-/DNAse-free microcentrifuge tubes at the beginning and end of experiment (FIG. 1). Collected pellets were placed at −80° C. for storage following collection. DNA from pellets were extracted using the PowerSoil DNA Isolation Kit (Qiagen, Hilden, Germany) according to the manufacturer's protocol. Amplicon library preparation and V4 region of 16S rRNA gene sequencing were performed at Illumina HiSeq 4000 (Illumina, CA, US) platform. Raw 16S rRNA sequences (150-bp paired-end reads) were initially processed by BaseSpace software (Illumina, CA, US). One mismatch in primer and zero mismatch in barcodes were applied to sample deconvolution. Deconvoluted sequences were further processed using the DADA2 data processing pipeline with default parameters to obtain amplicon sequence variants (ASVs). Final taxonomic assignment was conducted using RDP-classifier (v2.11) with 0.5 confidence value as cut-off. Reads with <0.5 confidence of classification was “unclassified” at a given taxonomical level. ASV counts were converted to relative abundance and agglomerated at the phylum and genus levels using the Phyloseq R package to visualize the microbiome composition in a stacked bar plot. […] Sample reads were rarefied to 10,000 reads to account for uneven sampling depth. Alpha diversity was determined with the richness and Shannon diversity metrics at the ASV level. Wilcoxon sum rank test was performed to compare alpha diversity of stool microbiome between asthma control and AKBA treated mice at day 0 and day 19. Beta diversity was visualized by principal component analysis (PCA). DESeq2, with an adjusted p value<0.05, was used for the differential taxa analysis. All plots were created with “ggplot2” and all analyses were conducted in RStudio version 4.1.0.

The mark [5] stands for this setting: AKBA treated mice, baseline vs endpoint, DESeq p<0.05.

For `CC(=O)O[C@@H]1CC[C@@]2(C)[C@@H](CC[C@]3(C)[C@@H]2C(=O)C=C2[C@@H]4[C@@H](C)[C@H](C)CC[C@]4(C)CC[C@]23C)[C@@]1(C)C(=O)O` [AKBA, 3-O-acetyl-11-keto-b-boswellic acid], in test [1] (not significant vs OVA control), the “IL-10 in BAL fluid” value turned out to be 19.77 ± 12.19 ng/mL and the “IL-13 in BAL fluid” value is 4.15 ± 3.15 ng/mL. For the same molecule, the “IL-5 in BAL fluid” value in test [1] (p=0.0079 vs OVA control) was found to be 31.39 ± 17.71 ng/mL. Also, in test [1] (p=0.0229 vs OVA control), the “IL-4 in BAL fluid” value turned out to be 9.30 ± 6.67 ng/mL. In addition, the “relative abundances of Bifidobacterium” value in test [2] is given as “increases”. Also, in test [3], the “effect on certain gut microbiota including Akkermansia” value is reported as “selectively inhibited” and the “feeding effect on Bifidobacteria” value is “no direct feeding effect”. Also, in the test on OVA-specific IgE, the “serum OVA-specific IgE” value was 1275.98 ± 503.22 ng/mL. For the same molecule, in test [4] (Mann-Whitney p=0.0002), the “BAL total leukocyte counts lower versus OVA control group” value was found to be 46.69%. Moreover, in test [4] (Mann-Whitney p=0.0212), the “BAL total leukocyte counts higher than naïve control” value was 60.38%. Also, the “percent eosinophil in BAL” value in test [4] (OVA+AKBA mice) worked out at 31.4%. Further, the “absolute number of eosinophils in BAL” value in test [4] (OVA+AKBA mice, mean±SD) came to 17317.95±5552.67 eosinophil/mL. Besides, in the test with gut microbiome (setting [5]), the “change in Hyphomicrobium, Solirubrobacter and Steroidobacter” value was “decreases”; the “change in Lactiplantibacillus, Lacticaseibacillus and Turicibacter” value is reported as “increases”. Also, the “overall richness and Shannon diversity of gut microbiome, baseline to endpoint” value with gut microbiome (OVA+AKBA group, 100 mg/kg AKBA) was “maintained”. The “Bifidobacterium increase, fold change” value with gut microbiome (OVA+AKBA group, baseline to endpoint, Wilcoxon p=0.07 vs OVA control) turned out to be 15.94±15.84 fold. Also, the “the 24 genera decreased in OVA control mice (Table 1): decreased in treated group” value in the test on gut microbiome (OVA+AKBA group, baseline vs end point) is reported as “None”. For the same molecule, the “relative abundances of Actinobacteria phyla and Bifidobacterium genus vs OVA control mice” value in the test on gut microbiome (OVA+AKBA mice) is “significantly higher”.

The values above are taken from patent US12702689B2, “Anti-inflammatory compositions, and uses thereof” (P.L. THOMAS & CO., INC., priority 2022, dated 2026).
